Measurements published in US20100267561A1, “HERBICIDAL PYRIDAZINONE DERIVATIVES” (priority 2007, published 2010).
Like-named read-outs stand apart in the source and are kept apart here.

Legend:
Assay type in all cases: in vivo
[1] = tested on: downy bromegrass (Bromus tectorum); assay: Test B pre-/postemergence plant response; settings: for pest or weed control at 31 g/ha: 31 g ai/ha; for pest or weed control at 62 g/ha: 62 g ai/ha, 100 complete control
Summary of the method: (§1)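 Preemergence and postemergence (plants 2-18 cm, 1- to 4-leaf stage) applications used test chemicals in a non-phytotoxic solvent with surfactant. Plants were held in a greenhouse 13 to 15 days, then rated visually against controls on a 0-100 scale (0 no effect, 100 complete control).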

[2] = tested on: common (oilseed) sunflower (Helianthus annuus); assay: Test B pre-/postemergence plant response; settings: Preemergence; for Sunflower plant response rating: scale 0 to 100
Summary of the method: as §1

[3] = tested on: large crabgrass (Digitaria sanguinalis); assay: Test B pre-/postemergence plant response; settings: for pest or weed control at 31 g/ha: 31 g ai/ha; for pest or weed control at 62 g/ha: 62 g ai/ha, 100 complete control
Summary of the method: as §1

[4] = tested on: velvetleaf (Abutilon theophrasti); assay: Test B pre-/postemergence plant response; settings: for pest or weed control at 31 g/ha / pest or weed control at 62 g/ha: Abutilon theophrasti, read-out: Plant response rating, Velvetleaf; for pest or weed control at 31 g/ha: 31 g ai/ha; for pest or weed control at 62 g/ha: 62 g ai/ha, 100 complete control
Summary of the method: as §1

[5] = tested on: wheat (Triticum aestivum); assay: Test B pre-/postemergence plant response; settings: for plant injury at 31 g/ha / plant injury at 62 g/ha: Triticum aestivum, read-out: Plant response rating, Wheat; for plant injury at 31 g/ha: 31 g ai/ha; for plant injury at 62 g/ha: 62 g ai/ha, 100 complete control
Summary of the method: as §1

[6] = tested on: morningglory (Ipomoea coccinea); assay: Test B pre-/postemergence plant response; settings: for pest or weed control at 31 g/ha / pest or weed control at 62 g/ha: Ipomoea, read-out: Plant response rating, Morningglory; for pest or weed control at 31 g/ha: 31 g ai/ha; for pest or weed control at 62 g/ha: 62 g ai/ha, 100 complete control
Summary of the method: as §1

wild oat (Avena fatua) = assay: Test B pre-/postemergence plant response; settings: for pest or weed control at 31 g/ha / pest or weed control at 62 g/ha: Avena fatua, read-out: Plant response rating, Oat, Wild; for pest or weed control at 31 g/ha: 31 g ai/ha; for pest or weed control at 62 g/ha: 62 g ai/ha, 100 complete control
Summary of the method: as §1

[7] = tested on: green foxtail (Setaria viridis); assay: Test B pre-/postemergence plant response; settings: for pest or weed control at 31 g/ha: 31 g ai/ha; for pest or weed control at 62 g/ha: 62 g ai/ha, 100 complete control
Summary of the method: as §1

corn (Zea mays) = assay: Test B pre-/postemergence plant response; settings: for Corn plant response rating (crop injury, 0 = no effect, 100 = complete kill) at 31 g/ha: 31 g ai/ha; for Corn plant response rating (crop injury, 0 = no effect, 100 = complete kill) at 62 g/ha: 62 g ai/ha, 100 complete control
Summary of the method: as §1

[8] = tested on: surinam grass (Brachiaria decumbens); assay: Test B pre-/postemergence plant response; settings: for pest or weed control at 31 g/ha / pest or weed control at 62 g/ha: Urochloa decumbens, read-out: Plant response rating, Surinam Grass; for pest or weed control at 31 g/ha: 31 g ai/ha; for pest or weed control at 62 g/ha: 62 g ai/ha, 100 complete control
Summary of the method: as §1

[9] = tested on: umbrella sedge (Cyperus difformis); assay: Test B flooded paddy test plant response; settings: Cyperus difformis, Flood (flooded paddy test), scale 0 to 100, 0 no effect, 100 complete control, read-out: Plant response rating, Sedge, Umbrella
Summary of the method: (§2)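 Paddy-water application to 2-leaf plants in pots held under 3 cm of flooding; response is a 0–100 visual control rating against controls after 13 to 15 days, and a dash marks a missing result.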

rice (Oryza sativa) = assay: Test B flooded paddy test plant response; settings: Oryza sativa, Flood (flooded paddy test), scale 0 to 100, 0 no effect, 100 complete control, read-out: Plant response rating, Rice
Summary of the method: as §2

[10] = tested on: ducksalad (Heteranthera limosa); assay: Test B flooded paddy test plant response; settings: Heteranthera limosa, Flood (flooded paddy test), scale 0 to 100, 0 no effect, 100 complete control, read-out: Plant response rating, Ducksalad
Summary of the method: as §2

[11] = tested on: barnyardgrass (Echinochloa crus-galli); assay: Test B flooded paddy test plant response; settings: Echinochloa crus-galli, Flood (flooded paddy test), scale 0 to 100, 0 no effect, 100 complete control, read-out: Plant response rating, Barnyardgrass
Summary of the method: as §2

[12] = 8 g ai/ha, postemergence, 0-100 scale
[13] = Preemergence, 8 g ai/ha, scale 0 to 100
[14] = Preemergence, 16 g ai/ha, scale 0 to 100
[15] = 16 g ai/ha, postemergence, 0-100 scale
[16] = post-emergence, Postemergence, scale 0 to 100
[17] = post-emergence, Postemergence, scale 0 to 100, 0 no effect
[18] = pre-emergence, Preemergence, scale 0 to 100 (0 no effect, 100 complete control)
[19] = pre-emergence, Preemergence, 0 to 100 scale, 0 no effect

Cc1nn(C)c(=O)c(-n2nc(-c3ccc(C(F)(F)F)cc3)cc2C)c1O [Compound 75, 5-hydroxy-2,6-dimethyl-4-[5-methyl-3-[4-(trifluoromethyl)phenyl]-1H-pyrazol-1-yl]-3(2H)-pyridazinone]
Bromegrass, Downy plant response rating [1, 12]: 0 | pest or weed control at 16 g/ha ([1]; Bromus tectorum, post-emergence, Postemergence, 16 g ai/ha, scale 0 to 100, read-out: Plant response rating, Bromegrass, Downy): 10% | pest or weed control at 31 g/ha ([1]; Bromus tectorum, post-emergence, Postemergence, scale 0 to 100, read-out: Plant response rating, Bromegrass, Downy): 30% | pest or weed control at 62 g/ha ([1]; Bromus tectorum, post-emergence, Postemergence, scale 0 to 100, 0 no effect, read-out: Plant response rating, Bromegrass, Downy): 50% | pest or weed control at 31 g/ha ([1]; Bromus tectorum, pre-emergence, Preemergence, scale 0 to 100 (0 no effect, 100 complete control), read-out: Plant response rating, Bromegrass, Downy): 50% | pest or weed control at 62 g/ha ([1]; Bromus tectorum, pre-emergence, Preemergence, 0 to 100 scale, 0 no effect, read-out: Plant response rating, Bromegrass, Downy): 80% | Bromegrass, Downy plant response rating [1, 13]: 0 | Bromegrass, Downy plant response rating [1, 14]: 20 | pest or weed control at 31 g/ha ([2]; Helianthus annuus, pre-emergence, 31 g ai/ha, scale 0 to 100 (0 no effect, 100 complete control), read-out: Plant response rating, Sunflower): 0% | pest or weed control at 62 g/ha ([2]; Helianthus annuus, pre-emergence, 62 g ai/ha, 0 to 100 scale, 0 no effect, 100 complete control, read-out: Plant response rating, Sunflower): 0% | Sunflower plant response rating ([2]; 8 g ai/ha): 0 | Sunflower plant response rating ([2]; 16 g ai/ha): 0 | Crabgrass, Large plant response rating [3, 12]: 0 | pest or weed control at 16 g/ha ([3]; Digitaria sanguinalis, post-emergence, Postemergence, 16 g ai/ha, scale 0 to 100, read-out: Plant response rating, Crabgrass, Large): 0% | pest or weed control at 31 g/ha ([3]; Digitaria sanguinalis, post-emergence, Postemergence, scale 0 to 100, read-out: Plant response rating, Crabgrass, Large): 30% | pest or weed control at 62 g/ha ([3]; Digitaria sanguinalis, post-emergence, Postemergence, scale 0 to 100, 0 no effect, read-out: Plant response rating, Crabgrass, Large): 60% | pest or weed control at 31 g/ha ([3]; Digitaria sanguinalis, pre-emergence, Preemergence, scale 0 to 100 (0 no effect, 100 complete control), read-out: Plant response rating, Crabgrass, Large): 25% | pest or weed control at 62 g/ha ([3]; Digitaria sanguinalis, pre-emergence, Preemergence, 0 to 100 scale, 0 no effect, read-out: Plant response rating, Crabgrass, Large): 55% | Crabgrass, Large plant response rating [3, 13]: 0 | Crabgrass, Large plant response rating [3, 14]: 0 | Velvetleaf plant response rating [4, 12]: 0 | Velvetleaf plant response rating [4, 15]: 0 | pest or weed control at 31 g/ha [4, 16]: 0% | pest or weed control at 62 g/ha [4, 17]: 0% | pest or weed control at 31 g/ha [4, 18]: 0% | pest or weed control at 62 g/ha [4, 19]: 0% | Velvetleaf plant response rating [4, 13]: 0 | Velvetleaf plant response rating [4, 14]: 0 | Wheat plant response rating [5, 12]: 0 | Wheat plant response rating [5, 15]: 20 | Wheat plant response rating [5, 14]: 0 | plant injury at 31 g/ha [5, 16]: 70% | plant injury at 62 g/ha [5, 17]: 85% | plant injury at 31 g/ha [5, 18]: 20% | plant injury at 62 g/ha [5, 19]: 45% | Morningglory plant response rating [6, 12]: 0 | Morningglory plant response rating [6, 15]: 0 | pest or weed control at 31 g/ha [6, 16]: 0% | pest or weed control at 62 g/ha [6, 17]: 0% | pest or weed control at 31 g/ha [6, 18]: 0% | pest or weed control at 62 g/ha [6, 19]: 0% | Morningglory plant response rating [6, 13]: 0 | Morningglory plant response rating [6, 14]: 0 | Oat, Wild plant response rating (wild oat (Avena fatua); [12]): 0 | Oat, Wild plant response rating (wild oat (Avena fatua); [15]): 30 | pest or weed control at 31 g/ha (wild oat (Avena fatua); [16]): 85% | pest or weed control at 62 g/ha (wild oat (Avena fatua); [17]): 98% | pest or weed control at 31 g/ha (wild oat (Avena fatua); [18]): 40% | pest or weed control at 62 g/ha (wild oat (Avena fatua); [19]): 50% | Oat, Wild plant response rating (wild oat (Avena fatua); [13]): 0 | Oat, Wild plant response rating (wild oat (Avena fatua); [14]): 0 | Foxtail, Green plant response rating [7, 12]: 0 | Foxtail, Green plant response rating [7, 13]: 0 | Foxtail, Green plant response rating [7, 14]: 30 | pest or weed control at 16 g/ha ([7]; Setaria viridis, post-emergence, Postemergence, 16 g ai/ha, scale 0 to 100, read-out: Plant response rating, Foxtail, Green): 40% | pest or weed control at 31 g/ha ([7]; Setaria viridis, post-emergence, Postemergence, scale 0 to 100, read-out: Plant response rating, Foxtail, Green): 80% | pest or weed control at 62 g/ha ([7]; Setaria viridis, post-emergence, Postemergence, scale 0 to 100, 0 no effect, read-out: Plant response rating, Foxtail, Green): 95% | pest or weed control at 31 g/ha ([7]; Setaria viridis, pre-emergence, Preemergence, scale 0 to 100 (0 no effect, 100 complete control), read-out: Plant response rating, Foxtail, Green): 50% | pest or weed control at 62 g/ha ([7]; Setaria viridis, pre-emergence, Preemergence, 0 to 100 scale, 0 no effect, read-out: Plant response rating, Foxtail, Green): 80% | Corn plant response rating (corn (Zea mays); [12]): 0 | Corn plant response rating (corn (Zea mays); [13]): 0 | Corn plant response rating (corn (Zea mays); [14]): 0 | Corn plant response rating (crop injury, 0 = no effect, 100 = complete kill) at 16 g/ha (corn (Zea mays); Zea mays, post-emergence, Postemergence, 16 g ai/ha, scale 0 to 100): 50% | Corn plant response rating (crop injury, 0 = no effect, 100 = complete kill) at 31 g/ha (corn (Zea mays); Zea mays, post-emergence, Postemergence, scale 0 to 100): 90% | Corn plant response rating (crop injury, 0 = no effect, 100 = complete kill) at 62 g/ha (corn (Zea mays); Zea mays, post-emergence, Postemergence, scale 0 to 100, 0 no effect): 100% | Corn plant response rating (crop injury, 0 = no effect, 100 = complete kill) at 31 g/ha (corn (Zea mays); Zea mays, pre-emergence, Preemergence, scale 0 to 100 (0 no effect, 100 complete control)): 75% | Corn plant response rating (crop injury, 0 = no effect, 100 = complete kill) at 62 g/ha (corn (Zea mays); Zea mays, pre-emergence, Preemergence, 0 to 100 scale, 0 no effect): 95% | Surinam Grass plant response rating [8, 12]: 60 | Surinam Grass plant response rating [8, 15]: 70 | Surinam Grass plant response rating [8, 13]: 45 | Surinam Grass plant response rating [8, 14]: 50 | pest or weed control at 31 g/ha [8, 16]: 75% | pest or weed control at 62 g/ha [8, 17]: 85% | pest or weed control at 31 g/ha [8, 18]: 80% | pest or weed control at 62 g/ha [8, 19]: 98% | pest or weed control at 62 g/ha ([9]; 62 g ai/ha): 0% | pest or weed control at 250 g/ha ([9]; 250 g ai/ha): 0% | plant injury at 62 g/ha (rice (Oryza sativa); 62 g ai/ha): 0% | plant injury at 250 g/ha (rice (Oryza sativa); 250 g ai/ha): 0% | pest or weed control at 62 g/ha ([10]; 62 g ai/ha): 0% | pest or weed control at 250 g/ha ([10]; 250 g ai/ha): 0% | pest or weed control at 62 g/ha ([11]; 62 g ai/ha): 0% | pest or weed control at 250 g/ha ([11]; 250 g ai/ha): 0%
